Results on ten molecules are retold here after ChEMBL document CHEMBL1201862, “PubChem BioAssay data set” (2004).

The structures appear in SMILES notation.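 Compound exposure: 48 hours, 5 concentrations, 96-well plates. GI50 is the concentration that inhibits growth by half.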 Calls of active or inactive are those of the source. Rule as the data show it: active = GI50 up to about 1.1 µM and inactive = higher.

Holding throughout (assay): growth of human tumour cells (NCI), 48 h
The subject of assay [1] is RXF 393.
The test system of assay [2] is A498.
In assay [3] the test system is SK-OV-3.
The subject of assay [4] is SR.
For assay [5], the system named is HCT-15.
Assay [6] deals with UO-31.
The test system of assay [7] is Hs-578T.
Assay [8] deals with HCC 2998.
In assay [9] the test system is HL-60.
For assay [10], the system named is SF-539.
For assay [11], the system named is T47D.
Assay [12] has as its system CCRF-CEM.
In assay [13] the test system is MDA-MB-231.
Assay [14] concerns NCI-H226.
Assay [15] concerns SW-620.
Assay [16] relates to SK-MEL-5.
For assay [17], the system named is CAKI-1.
Assay [18] deals with LOX IMVI.
The test system of assay [19] is DU-145.
Assay [20] has as its system U-251.

Take `C=C1C(=O)O[C@@H]2C[C@]3(C)CC[C@]4(C)[C@H](CC[C@@H]5[C@@]6(C)CCC(=O)C(C)(C)[C@@H]6CC[C@]54C)[C@H]3[C@H]12` [OCHRACEOLIDE A]: the GI50 in assay [1] is 16.6 µM (inactive); in assay [2] it was 21 µM (inactive); in assay [3] it was 24 µM (inactive); in assay [4], 14.9 µM (inactive); in [5] it was 12.5 µM; in assay [6], 14.8 µM (inactive). The GI50 was 31.6 µM (inactive) in assay [7]; 19.2 µM (inactive) in assay [8]; 1.63 µM (inactive) in assay [9]; 21.7 µM (inactive) in assay [10]; 10.6 µM (inactive) in assay [11]; 2.43 µM (inactive) in assay [12]. Also, the GI50 in assay [13] was 24.7 µM (inactive); in assay [14], 20 µM (inactive); in [15], 11.6 µM (inactive); in assay [16], 12.5 µM (inactive); in assay [17], 13.1 µM (inactive); in [18], 15.2 µM (inactive). For the same molecule, the GI50 in assay [19] was 17.9 µM (inactive); in [20], 19 µM (inactive).
Take `CCCCCc1c(CCCC)c(=O)[nH]c2cc(CNCC(OC)OC)ccc12`: the GI50 in assay [1] is 12 µM (inactive); in [2], 15.1 µM (inactive); in [3], 18.1 µM (inactive); in assay [4], 6.9 µM (inactive); in assay [5] it was 9.53 µM; in assay [6], 13.2 µM (inactive). Besides, the GI50 was 18.5 µM (inactive) in assay [7]; 3.24 µM (inactive) in [8]; 6 µM (inactive) in [9]; 14.8 µM (inactive) in assay [10]; 15.5 µM (inactive) in assay [11]; 4.05 µM (inactive) in [12]. Besides, the GI50 in assay [13] was 15.2 µM (inactive); in assay [14] it was 20.6 µM (inactive); in assay [15] it was 5.79 µM (inactive); in [16], 8.77 µM (inactive); in [17], 10.9 µM (inactive); in [18], 6.01 µM (inactive). In addition, the GI50 in assay [19] is 14.6 µM (inactive); in [20], 10.8 µM (inactive).
For `O=C1NN(c2ccccc2)C(=O)C2C3c4ccccc4C(c4ccccc43)C12` (stereo not given), the GI50 in assay [1] is 41.1 µM (inactive); in assay [2], 32.2 µM (inactive); in assay [3], > 100 µM (inactive); in [4] it was > 100 µM (inactive); in [5], 89.1 µM; in assay [6], > 100 µM (inactive). The GI50 in assay [7] was 83.2 µM (inactive); in [8] it was 6.64 µM (inactive); in [9] it was > 10 µM (inactive); in [10] it was > 100 µM (inactive); in assay [11] it was 44.4 µM (inactive); in assay [12] it was 22.5 µM (inactive). The GI50 in [13] is 41 µM (inactive); in assay [14], > 100 µM (inactive); in assay [15], > 100 µM (inactive); in [16] it was > 100 µM (inactive); in [17] it was > 100 µM (inactive); in [18] it was > 100 µM (inactive). For the same molecule, the GI50 in assay [19] and in assay [20] was > 100 µM (inactive) throughout.
For `CSc1nc(NC2OC(COC(C)=O)C(OC(C)=O)C(OC(C)=O)C2OC(C)=O)c(/N=C\C=N/c2c(NC3OC(COC(C)=O)C(OC(C)=O)C(OC(C)=O)C3OC(C)=O)nc(SC)n(C)c2=O)c(=O)n1C` (stereo not given), the GI50 was 17.9 µM (inactive) in assay [1]; 38.5 µM (inactive) in assay [2]; 36.1 µM (inactive) in [3]; > 100 µM (inactive) in [4]; more than 100 µM in assay [5]; > 100 µM (inactive) in assay [6]. Further, the GI50 in assay [7] was 26.1 µM (inactive); in assay [8] it was > 100 µM (inactive); in [9], > 100 µM (inactive); in assay [10] it was 38 µM (inactive); in [11], 96.8 µM (inactive); in assay [12] it was > 100 µM (inactive). The GI50 was 49.3 µM (inactive) in [13]; 54.1 µM (inactive) in [14]; > 100 µM (inactive) in assay [15]; > 100 µM (inactive) in [16]; > 7.23 µM (inactive) in assay [17]; > 95.3 µM (inactive) in assay [18]. In addition, the GI50 was > 100 µM (inactive) in assay [19] and 41.2 µM (inactive) in [20].
On to `Cc1nc2ccc([N+](=O)[O-])cc2c(=O)n1C(=S)Nc1cccc(Cl)c1`, for which the GI50 in assay [1] is 13.9 µM (inactive); in assay [2], 9.4 µM (inactive); in assay [3] it was 22.5 µM (inactive); in [4] it was 31 µM (inactive); in [5] it was 12.9 µM; in [6], 5.24 µM (inactive). Further, the GI50 in assay [7] is 21.5 µM (inactive); in assay [8] it was 9.02 µM (inactive); in assay [9], 14.2 µM (inactive); in assay [10], 19.5 µM (inactive); in assay [11], 7.53 µM (inactive); in assay [12], 12.9 µM (inactive). The GI50 in assay [13] is 15.5 µM (inactive); in assay [14], 14.9 µM (inactive); in assay [15], 22 µM (inactive); in assay [16], 14.1 µM (inactive); in assay [17] it was 18.1 µM (inactive); in assay [18], 12.9 µM (inactive). Besides, the GI50 was 28.4 µM (inactive) in assay [19] and 18.5 µM (inactive) in assay [20].
`COc1cc(CSc2ccc(O)cc2)cc(O)c1O`: the GI50 in assay [1] is 50.6 µM (inactive); in [2] it was > 100 µM (inactive); in assay [3] it was > 10 µM (inactive); in assay [4], 21.7 µM (inactive); in assay [5] it was 18.7 µM; in assay [6], 27.2 µM (inactive). The GI50 in assay [7] was 42.1 µM (inactive); in assay [8], 29.2 µM (inactive); in [9], 19.6 µM (inactive); in assay [10], 29.9 µM (inactive); in assay [11] it was 28.8 µM (inactive); in assay [12], 8.36 µM (inactive). The GI50 in assay [13] is 25.4 µM (inactive); in [14] it was 23.4 µM (inactive); in [15], 38.5 µM (inactive); in [16], > 10 µM (inactive); in [17] it was 28 µM (inactive); in [18] it was 36.2 µM (inactive). The values for the GI50 in [19] and in assay [20] were 44.5 µM (inactive) and 28.8 µM (inactive), respectively.
In the case of `O=C1C(=O)N(c2cccc(C(F)(F)F)c2)C(=O)C(=O)C1c1nc2ccccc2s1`, the GI50 in [1] was > 100 µM (inactive); in assay [2], > 100 µM (inactive); in [3] it was > 100 µM (inactive); in assay [4], 36.3 µM (inactive); in assay [5], 39.6 µM; in assay [6] it was 79.8 µM (inactive). For the same molecule, the GI50 is > 100 µM (inactive) in [7]; 99.5 µM (inactive) in assay [8]; 31.8 µM (inactive) in assay [9]; > 100 µM (inactive) in assay [10]; > 100 µM (inactive) in assay [11]; 24.5 µM (inactive) in [12]. The GI50 in assay [13] is 73.6 µM (inactive); in assay [14], > 81.8 µM (inactive); in [15] it was 61.1 µM (inactive); in assay [16] it was > 100 µM (inactive); in assay [17], > 100 µM (inactive); in assay [18] it was 68.9 µM (inactive). Moreover, the GI50 in assay [19] was > 100 µM (inactive); in [20], 62.4 µM (inactive).
Regarding `Clc1ccc2c(c1)N(CCCN1CCCC13CCCCC3)c1ccccc1S2`, the GI50 in assay [1] is 5.93 µM (inactive); in [2] it was 16 µM (inactive); in assay [3], 20.8 µM (inactive); in assay [4], 4.39 µM (inactive); in assay [5], 17.1 µM; in assay [6], 8.38 µM (inactive). Besides, the GI50 in assay [7] is 13.5 µM (inactive); in [8], 3.08 µM (inactive); in assay [9] it was 0.152 µM (active); in assay [10] it was 17.2 µM (inactive); in assay [11], 11.9 µM (inactive); in [12] it was 4.06 µM (inactive). For the same molecule, the GI50 is 8.85 µM (inactive) in assay [13]; 35.3 µM (inactive) in assay [14]; 14.9 µM (inactive) in [15]; > 41.9 µM (inactive) in assay [16]; 24.2 µM (inactive) in assay [17]; 12.4 µM (inactive) in assay [18]. Further, the GI50 in [19] was 16.6 µM (inactive); in [20] it was 10.2 µM (inactive).
As for `COc1ccc2nc(N/N=C/C(C)=N/Nc3cc(C)c4cc(OC)ccc4n3)cc(C)c2c1`, the GI50 was 39.9 µM (inactive) in [1]; > 68.2 µM (inactive) in assay [2]; > 83.8 µM (inactive) in assay [3]; 5.11 µM (inactive) in [4]; 9.75 µM in [5]; > 80.4 µM (inactive) in assay [6]. In addition, the GI50 in assay [7] was 31 µM (inactive); in assay [8], 20.1 µM (inactive); in [9], 18.5 µM (inactive); in assay [10], 17.8 µM (inactive); in [11], 29.8 µM (inactive); in assay [12] it was 2.47 µM (inactive). Also, the GI50 in [13] was 19 µM (inactive); in [14] it was 45.6 µM (inactive); in assay [15], 17 µM (inactive); in [16] it was 26.5 µM (inactive); in [17], 49.4 µM (inactive); in assay [18], 22.6 µM (inactive). Also, the GI50 was 18.1 µM (inactive) in assay [19] and 16.2 µM (inactive) in [20].
Consider `O=C1C(Cl)=C(N(C(=O)c2ccccc2)C(=O)c2ccccc2)C(=O)c2ccccc21`, for which the GI50 in [1] is 3.66 µM (inactive); in assay [2] it was > 100 µM (inactive); in [3], 40.6 µM (inactive); in assay [4] it was 15.5 µM (inactive); in assay [5], 2.94 µM; in assay [6] it was 3.39 µM (inactive). The GI50 is 4.8 µM (inactive) in assay [7]; 12.1 µM (inactive) in assay [8]; 1.08 µM (active) in [9]; 4.3 µM (inactive) in [10]; 4.68 µM (inactive) in assay [11]; 2.84 µM (inactive) in [12]. Besides, the GI50 in [13] was 9.71 µM (inactive); in [14] it was > 100 µM (inactive); in [15], 5.15 µM (inactive); in [16], 3.6 µM (inactive); in assay [17] it was 10.5 µM (inactive); in assay [18], 25.6 µM (inactive). Also, the GI50 was > 100 µM (inactive) in assay [19] and 5.98 µM (inactive) in assay [20].
